Source: patent publication US20080188761A1, “ECG-BASED IDENTIFICATION OF IMPAIRED IKR KINETICS” (priority 2006, published 2008)
Read-outs that look alike come from different tables or passages of the source.

Test system: healthy individuals
Settings: for RR: healthy subjects, lead II, mean ± SD
Experimental: Our investigation is based on the analysis of 12-lead digital Holter recordings in: 49 LQT1 carriers, 25 LQT2 carriers, 37 healthy individuals off drugs and on 160 mg of sotalol, and 21 of them also on 320 mg of sotalol. The Holter recordings were used to investigate repolarization parameters and their heart rate dependency.
The study populations consisted of: 49 LQT1 carriers, 25 LQT2 carriers, and 37 healthy individuals who participated in a study focused on effect of sotalol on ECG parameters of repolarization. The group of LQTS patients included individuals with genetically identified KCNH2 (HERG) and KCNQ1 mutations, we investigated these two types of mutations since they are associated with two different ion-kinetics dysfunctions of potassium currents: the KCNH2 have been linked to a reduction of the rapidly activating repolarizing potassium current (IKr) and the KCNQ1 to the slowly activating ion current IKs. We analyzed the patients in whom digital 24-hour Holter recordings were available in order to be able to investigate heart rate dependency of their repolarization morphology. The protocol of this study included 3 days of Holter recordings: at baseline, on single 160 mg dose of sotalol and a 320 mg dose of sotalol.
All the Holter ECGs were recorded using the same type of equipment: 24-hour Holter recorder H12 (H-12 recorder, Mortara Instrument, Milwaukee, Wis.) providing digital ECG signal at a sampling frequency of 180 Hz and with 12 bit amplitude resolution (6.25 pv). In this recording, 8 original leads are recorded and the remaining 4 leads (augmented limb leads aVR, aVL, aVF and lead III) are computed. Beat classification was performed using the HScribe scanning software (HScribe, Mortara Instrument, Milwaukee, Wi.) and manually reviewed and adjusted when necessary. The information about cardiac beat annotation was exported in XML format and integrated into the COMPAS software (COMPhrensive Analysis of the repolarization Segment software, University of Rochester Medical Center Rochester, N.Y.) for the analysis of repolarization morphology.
To ensure stability of repolarization and increase signal-to-noise ratio, we adopted the following strategy: the Holter recordings were divided in sections of 10 continuous sinus beats. Only the sections preceded by stable heart rate within the previous 5 minutes were selected for the analysis. Heart rate stability required having less than 300 ms changes between continuous RR values within the 5 minutes. […] The QT interval and T-amplitude measurements were based on median beats computed from each so-called “stable representative beats”.
Based on a technique ensuring an appropriate stability of the modeling of the relationship between repolarization measurements and the RR intervals disclosed in a publication by Couderc J P, Xiaojuan X, Zerba W, Moss A J, entitled, “Assessment of the Stability of the Individual-Based Correction of QT Interval for Heart Rate”, published in the Ann. Noninvasive. Electrocardiol. 2005 January; 10(1):25-34, and herein officially incorporated by reference, we investigated two electrocardiographic measurements: the QT interval and the amplitude of the T-wave and their relationship with RR intervals.
The QT interval and T amplitude were measured on the stable representative beats from lead II. The end of T-wave was identified based on the tangent method, the crossing point between the tangent and the isoelectric line identifying the end of the T-wave, although other methods of measuring the QT interval could be used in other embodiments. The amplitude of the T-wave was measured at the maximum value of the T-wave signal in absolute value. For negative T-waves, the sign of the amplitude was conserved. For biphasic T-waves, we measured the highest portion of the signal in absolute value. No manual adjustments of measurements were performed.

SMILES: CC(C)NCC(O)c1ccc(NS(C)(=O)=O)cc1 (stereo not drawn) [sotalol]
- RR (high dose sotalol (320 mg), n = 21, diurnal period): 947 ± 70 ms
- RR (low dose sotalol (160 mg), n = 37, diurnal period): 893 ± 63 ms
- Dose dependence of QT/RR slope (in vivo): not associated with sotalol dose-dependent changes
- Dose dependence of T-wave amplitude/RR slope (in vivo): dose-dependent effect on the slope
- Dose-dependent effect on QT interval duration, RR bin analysis (in vivo): this trend did not reach statistical significance
- Mean levels of T wave amplitude off vs on sotalol (in vivo): not significantly different
- QT interval duration, RR bin analysis, vs healthy individuals (in vivo): significant QT interval prolongation
- QTc with increasing dose of sotalol (in vivo): progressively prolonged
- T-wave amplitude across RR bins (in vivo): clear dose-dependent effect of the drug on T-wave amplitude exacerbated at low heart rate
